Experimental data taken from paper PMC12624573, “The antigen presentation landscape of cytokine-stressed human pancreatic islets” (Cell reports, 2025).

Each substance was assayed on CD8+ T cells from PBMC (assay: IFN-γ ELISpot, PBMC-derived in vitro expanded CD8+ T cell lines). Conditions: A2 Set Peptides; PBMC T cell lines; responding donors/donors tested.
Type: cell-based, human
Set-up: key to T cell recognition by PBMC from a T1D donor: E: T cell recognition by PBMC from a T1D donor was tested and verified; see Figure 5

| Substance | T1D Donor T cell response | non-T1D Donor T cell response |
| --- | --- | --- |
| KLLDPEDVAVQL [compound 142, 18] | 0/4 | 0/2 |
| ALAPAPPQV [compound 127, 16] | 0/4 | 0/2 |
| TLVEAIKQV [compound 113, 15] | – | 0/2 |
| KVIEINPYL [compound 123, 16] | 0/5 | 0/2 |
| KQFPEVIKY [compound 90, 12] | 0/4 | 0/2 |
| FLIRESETL [compound 109, 14] | 1/4 | 0/2 |
| RLSDAQIYV [compound 103, 14] | 0/4 | 0/2 |
| YLHSQVVSV [compound 139, 18] | 0/4 | 0/2 |
| KVDEAVAVL [compound 83, 11] | 0/4 | 0/2 |
| RYLEQLHQL [compound 135, 17] | 0/4 | 0/2 |
| VIANEIEKV [compound 88, 12] | 0/5 | 0/2 |
| HLTPSPVPV [compound 121] | 0/5 | 0/2 |
| AQTEVIATL [compound 94] | 0/5 | 0/2 |
| LLSDTVQHL [compound 136, 17] | 0/4 | 0/2 |
| FIASKGVKLV [compound 86, 12] | 0/5 | 0/2 |
| AQIALQPAL [compound 131, 17] | 0/4 | 0/2 |
| ALKPLAAAL [compound 138, 18] | 0/4 | 0/2 |
| QLMAEKLQL [compound 115, 15] | 0/4 | 0/2 |
| SLLQGSPHL [compound 122, 16] | 0/4 | 0/2 |

Same assay, conditions: HPAP-A2 Pool Peptides; PBMC T cell lines; responding donors/donors tested

| Substance | T1D Donor T cell response | non-T1D Donor T cell response |
| --- | --- | --- |
| KVIEINPYL [compound 166] | 0/4 | 0/4 |
| NLKEAIETI [compound 163] | 0/4 | 0/4 |
| FTNHFLVEL [compound 165] | 0/4 | 0/4 |
| KQFPEVIKY [compound 157] | 0/5 | 0/4 |

Same assay, conditions: MHC-I peptides; superscript E on the peptide; F = verified with C1R-A2 cells

| Substance | T cell recognition by PBMC from a T1D donor |
| --- | --- |
| ALMEAIHSA | ALMEAIHSA ^ E |

The substances below were run on CD4+ T cells from PBMC (assay: IFN-γ ELISpot, PBMC-derived in vitro expanded CD4+ T cell lines). Conditions: DR3/DQ Set Peptides; PBMC T cell lines; responding donors/donors tested.
Type: cell-based, human
Set-up: key to T cell recognition by PBMC from a T1D donor (mark E) / T cell recognition by PBMC from a T1D donor: E: T cell recognition by PBMC from a T1D donor was tested and verified; see Figure 5

| Substance | T1D Donor T cell response | non-T1D Donor T cell response |
| --- | --- | --- |
| ETDKEQLTAEAKELRQK [peptide 6] | 1/4 | 0/2 |
| ITSIVKDSSAARNGL [peptide 18] | 2/4 | 0/2 |
| KQGYQLIEGNQVLHS [compound 20] | 0/4 | 0/2 |
| IGEETVITVDTKAAGKGK [peptide 14] | 0/4 | 0/2 |
| RQRYEILTPNSIPK [compound 26] | 2/4 | 0/2 |
| QDPELPDKNMFTINRNTGVIS [compound 29] | 2/4 | 0/2 |
| EDYYVSKSAVVFGG [compound 28] | 2/4 | 1/2 |
| LEKDIISDTSGDFRK [compound 8] | 0/4 | 0/2 |
| GSDDWAYDQGIRYS [compound 21] | 3/4 | 0/2 |
| YYYIQQDTKGDYQK [peptide 7] | 0/4 | 0/2 |
| GVSDQSFQVEEAKRIKQ [compound 25] | 0/4 | 0/2 |
| TPGNALVVDPKKPFRK [compound 13] | 3/4 | 1/2 |
| DDALVRQDAQDLYEAG [compound 9] | 0/4 | 0/2 |
| IPGYIVDDSVRVEQ [peptide 19] | 0/4 | 0/2 |
| VPGNALVVDPRRPFRK [compound 12] | 1/4 | 0/2 |
| GKRAIILETRQHRLF [peptide 1] | 0/4 | 0/2 |
| VPIDIDKTKVQNIHPVESA [compound 4] | 0/4 | 0/2 |
| KARFAKQPAYTLVDR [compound 24] | 3/4 | 2/2 |
| GREEITYDTPFKREKS [compound 16] | 3/4 | 0/2 |
| APGYLAITKKVAVPY [compound 30] | 3/4 | 1/2 |
| FQYIIDNKGIDSDAS [compound 31] | 1/4 | 0/2 |
| WRPSLVPASAENVNKA [compound 23] | 2/4 | 0/2 |
| ELSAERPLNEQIAEAE [peptide 32] | 1/4 | 0/2 |

Same assay, conditions: HPAP-DR3 Pool Peptides; PBMC T cell lines; responding donors/donors tested

| Substance | T1D Donor T cell response | non-T1D Donor T cell response |
| --- | --- | --- |
| SANLHGGDLVANYPY [compound 155] | 0/4 | 0/4 |

Same assay, conditions: MHC-II peptides; superscript E on the peptide; G = verified with QBL cells

| Substance | T cell recognition by PBMC from a T1D donor |
| --- | --- |
| AVPEEEGPTVVLXPHPSLG [AVPEEEGPTVVLXPHPSLG (X=deamindated N=isoasp)] | AVPEEEGPTVVLXPHPSLG^E,G (X=deamindated N=isoasp) |
| QSIEGGAHEGLQHLGP | QS IEGGAHEGL QHLGP ^ E |

Same assay, conditions: MHC-II peptides; tested and verified, see Figure 5

| Substance | T cell recognition by PBMC from a T1D donor (mark E) |
| --- | --- |
| GSDDWAYDQGIRYS | GSDD WAYDQGIRY S ^ E |
| AELEDDFKEGYLE | AE LEDDFKEGY LE ^ E |
| ELSAERPLNEQIAEAE | ELSAERP LNEQIAEAE ^ E |
| GREEITYDTPFKREKS | GREE ITYDTPFKR EKS ^ E |
| EDYYVSKSAVVFGG | ED YYVSKSAVV FGG ^ E |
| APGY LAITKKVAV PY | E |
| ITSIVKDSSAARNGL | ITS IVKDSSAAR NGL ^ E |
| TPGNALVVDPKKPFRK | TPGNA LVVDPKKPF RK ^ E |
| WRPSLVPASAENVNKA | WRPS LVPASAENV NKA ^ E |
| KRPAIWIDTGIHSRE | KRPA IWIDTGIHS RE ^ E |
| NPAEFVVNTSNAGAG | NPAE FVVNTSNAG AG ^ E |
| NYPSLELDKMAHG | NYPSLELDKMAHG ^ E |

Same assay, conditions: PTM and unmodified native Pool Peptides (pool PTM 1), long peptides; PBMC T cell lines; responding donors/donors tested

| Substance | T1D Donor T cell response | non-T1D Donor T cell response |
| --- | --- | --- |
| ELSAERPLNEQIAEAE [compound 144, non-modified native peptide, pool PTM DR3] | 0/4 | 0/4 |
| SVPHFSDEDKDPE [compound 147, non-modified native peptide, pool PTM DR3] | 0/4 | 0/4 |
| ELXAERPLNEQIAEAE [144-1, PTM peptide, X=dehydroS=dehydroAla, pool PTM DR3] | 0/4 | 0/4 |
| AEDLQVGQVELGGGPGAGSLQPL [compound 145, non-modified native peptide, pool PTM DR3] | 0/4 | 0/4 |
| AVPEEEGPTVVLNPHPSLG [peptide 148, non-modified native peptide from CHGA, pool PTM DR3] | 0/4 | 0/4 |
| GSHLVEALYLVCGEXGF [146-2] | 0/4 | 0/4 |
| AEDLQVGEVELGGGPGAGSLQPL [145-1, PTM peptide, E=deamidated Q=glutamic acid, pool PTM DR3] | 0/4 | 0/4 |

Same assay, conditions: SEC (Secretory) DR3 Peptides Set; PBMC T cell lines; responding donors/donors tested

| Substance | T1D Donor T cell response | non-T1D Donor T cell response |
| --- | --- | --- |
| RPLNEQIAEAEEED [compound 187, secretory hormone eluted peptide from SCG3, pool SEC DR3] | 0/4 | 1/4 |
| GRGGEPRAYFMSDTREE [compound 183, secretory hormone eluted peptide, pool SEC DR3] | 0/4 | 0/4 |
| DDPDGLHQLDGTPLTAED [compound 189, secretory hormone eluted peptide from SCG3, pool SEC DR3] | 0/4 | 1/4 |
| SQGLVDREKGLSAEPGWQA [compound 180, secretory hormone eluted peptide from CHGA, pool SEC DR3] | 0/4 | 1/4 |

Same assay, conditions: T1D donors, PBMC-derived lines (Figure 5J)

| Substance | Number of donors whose CD4 T cells recognized the peptide (IFN-γ ELISpot) |
| --- | --- |
| KARFAKQPAYTLVDR [compound 24] | three of the donors |
| GREEITYDTPFKREKS [compound 16] | three of the donors |
| APGYLAITKKVAVPY [compound 30] | three of the donors |

Same assay, conditions: control donor LSLP-074; frequencies ∼10-fold lower than for T1D-004 (Figures 5E, 5F, S5B)

| Substance | IFN-γ ELISpot response of expanded CD4+ T cells |
| --- | --- |
| TPGNALVVDPKKPFRK [compound 13] | responded |
| KARFAKQPAYTLVDR [compound 24] | responded |

Same assay, conditions: control donor LSLP-153; line expanded with megapool HPAP-DR3 + SEC-DR3, tested with individual peptides (Figure S5C)

| Substance | IFN-γ ELISpot response of expanded CD4 T cells |
| --- | --- |
| RPLNEQIAEAEEED [compound 187, secretory hormone eluted peptide from SCG3, pool SEC DR3] | IFN-γ responses |
| DDPDGLHQLDGTPLTAED [compound 189, secretory hormone eluted peptide from SCG3, pool SEC DR3] | IFN-γ responses |
| SQGLVDREKGLSAEPGWQA [compound 180, secretory hormone eluted peptide from CHGA, pool SEC DR3] | IFN-γ responses |
